Measured values reported in article PMC4872165, “Targeting human respiratory syncytial virus transcription anti-termination factor M2-1 to inhibit in vivo viral replication” (Scientific Reports, 2016).

Target: T1, hRSV RNA-dependent RNA polymerase (RdRp) complex with M2-1 (L, P, N, M2-1 minigenome) (Human respiratory syncytial virus A2, UniProt P04545)
T1 construct: pN, pP, pL and pM2-1 plasmids (T7 promoter) in BSR-T7/5 (BHK-21) cells with pM/Luc minigenome; strain printed for the virus only, not for the plasmids; M2-1 tetrameric; with RNA-directed RNA polymerase L; Phosphoprotein; Nucleoprotein
Assay: hRSV minigenome luciferase reporter assay in transfected BSR-T7/[…] cells
Type: cell-based

T1 sequence (P04545 whole entry, looked up, one chain of several): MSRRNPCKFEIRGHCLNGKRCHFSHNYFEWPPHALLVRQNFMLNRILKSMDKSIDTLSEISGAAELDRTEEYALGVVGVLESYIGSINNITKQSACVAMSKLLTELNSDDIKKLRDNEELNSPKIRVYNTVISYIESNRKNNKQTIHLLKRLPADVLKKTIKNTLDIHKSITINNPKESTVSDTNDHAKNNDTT

## CC1=C2C[C@H]3[C@@H](CC=C4C[C@@H](O)CC[C@@]43C)[C@@H]2CC[C@]12O[C@@H]1C[C@H](C)CN[C@H]1[C@H]2C [cyclopamine]
  IC50: 380 nM
